Experimental data published in patent US9457057B2, “Methods for the prevention and treatment of burn injuries and secondary complications” (The General Hospital Corporation, priority 2009, dated 2016).

Columns and labels:
Sprague Dawley rats [1] = test: Indirect calorimetry after burn injury in a rat model (Example 1); type: in vivo; conditions: 30% TBSA full thickness burn, SS-31 2 mg/kg IV q12h for three days, n = 3
Description: Sprague Dawley rats were randomized into three groups; sham-burn (SB), burn with saline treatment (B) and burn with peptide treatment (BP). Catheters were surgically placed into jugular vein and carotid artery. B and BP animals received 30% total body surface area full thickness burns by immersing the dorsal part into 100° C. water for 12 seconds with immediate fluid resuscitation. BP animals received IV injection of SS-31 (2 mg/kg every 12 h) for three days (FIG. 1). The EE of the animals were constantly monitored for 12 hours in a TSE Indirect Calorimetry System (TSE Co. Germany).

apoptosis in the liver = test: Liver apoptosis by TUNEL method after burn injury (Example 2); type: in vivo, mouse; conditions: C57BL mice, 30% TBSA burn, 5 mg/kg daily; days 1, 3, 7, effects most obvious on day 7 post-burn
Description: (§1) Systemic inflammatory response syndrome (SIRS) and multiple organ failure (MOF) are leading causes of morbidity and mortality in severe burn patients. In this Example, the effects of the aromatic-cationic peptides of the invention on liver damage in a mouse model of burn injury were examined. Six to eight week old male C57BL mice were subjected to 30% total body surface area (TBSA) burn injury and subsequently injected daily with saline or SS-31 peptide (5 mg/kg body weight). A weight- and time-matched sham-burn group subjected to lukewarm (˜37° C.) water but otherwise treated exactly the same served as controls (FIG. 3). The liver tissues were collected 1, 3, and 7 days after burn injury treatment and used to examine apoptosis by TUNEL method, activated caspase protein levels by Western blots, and caspase activity by an enzymatic reaction assay.

caspase-3 [2] = test: Activated caspase protein levels in liver by Western blots (Example 2); type: in vivo, mouse; conditions: C57BL mice, 30% TBSA burn, 5 mg/kg daily; day 3 and 7 post-burn
Description: as §1

caspase-3 [3] = test: Liver caspase activity by an enzymatic reaction assay (Example 2); type: in vivo, mouse; conditions: C57BL mice, 30% TBSA burn, 5 mg/kg daily
Excerpt: FIG. 6 is a graph showing caspase-3 activity from the various treatment groups of Example 2.
as §1

protein oxidation = test: Liver protein oxidation by western blot (Example 2); type: in vivo, mouse; conditions: C57BL mice, 30% TBSA burn, 5 mg/kg daily
Excerpt: FIG. 7 is a photograph of a western blot analysis showing protein oxidation from the various treatment groups of Example 2.
as §1

Sprague-Dawley rats = test: Wound contraction after burn injury, area of the scab (Example 3); type: in vivo, rat; conditions: 65° C. water 25 sec, 1 mg IP one hour prior to burn, 1 mg topical, 1 mg IP every 12 h for 72 h, time points ≧8 days post-burn, p=0.06 by ANOVA
Description: Sprague-Dawley rats (male, 300-350 g) were pre-treated with 1 mg SS-31 peptide administered IP (this corresponds to about 3 mg/kg) one hour prior to burn (65° C. water for 25 sec on the lower back), followed by topical treatment (1 mg on top of the wound), and 1 mg SS-31 peptide administered IP every 12 h for 72 h. Wounds were observed up to ˜3 weeks post-burn. In general, the wounds took the appearance of a hard scab, and for the purpose of this experiment, the area of the scab was quantified as a measure of wound size. […] Treatment with SS-31 slowed the wound contraction, which indicates the burn injury was less severe compared to burns in animals without the peptide treatment. As such, the aromatic-cationic peptides of the invention are useful in methods of treating wounds associated with a burn injury.

[4] = system: redox state of the gastrocnemius muscle; test: Redox state of gastrocnemius muscle by nitroxide EPR after local burn (Examples 4 and 8); type: in vivo, mouse; conditions: mice
Description: A clinically relevant murine nonlethal local burn injury model was used to address whether aromatic-cationic peptides can prevent/attenuate the adverse effects of burn injury on mitochondrial dysfunction and ER stress. The redox state of the gastrocnemius muscle immediately below a local cutaneous burn (90° for 3 sec) was evaluated by nitroxide EPR.
Next, the effect of SS-31 peptide treatment administered IP 30 min before burn, and immediately after burn (3 mg/kg each dose) was tested.
(§2) Materials and Methods. Male 6-week-old CD1 mice weighing 20-25 g were anesthetized by intraperitoneal (i.p.) injection of 40 mg/kg pentobarbital sodium. The left hind limb of all mice in all groups was shaved. Each burned mouse was subjected to a nonlethal scald injury of 3-5% total body surface area (TBSA) by immersing its left hind limb in 90° C. water for 3 sec.
EPR spectroscopy is described in detail in Khan et al. “Burn Trauma in skeletal muscle results in oxidative stress as assessed by in vivo electron paramagnetic resonance.” Mol Med Reports 1: 813-819 (2008). Briefly, mice were randomized into burn, burn+SS-31 peptide and control groups. The SS-31 peptide (3 mg/kg) was injected intraperitoneally at 0, 3, 6, 24, and 48 hours post-burn. EPR measurements were carried out with a 1.2-GHz EPR spectrometer equipped with a microwave bridge and external loop resonator specially designed for in vive experiments. The optimal spectrometer parameters were: incident microwave power, 10 mW; magnetic field center, 400 gauss; modulation frequency, 27 kHz. The decay kinetics of intravenously-injected nitroxide (150 mg/kg) were measured at the various time points, which indicated the mitochondrial redox status of the muscle.

Sprague Dawley rats [5] = test: Indirect calorimetry 6 days after burn injury, 7-day infusion (Example 7); type: in vivo, rat; conditions: III degree 30% TBSA burns, 2 mg/kg priming then 4 mg/kg/day infused 7 days
Description: (§3) Methods. Sprague Dawley rats were randomly divided into 5 groups; sham (S), sham with saline treatment (SSal), sham with SS-31 treatment (SPep), burn with saline treatment (BSal) and burn with SS-31 treatment (BPep). In burn group, the back of animal was immersed into 100° C. water for 12 seconds to produce III degree 30% TBSA burns under general anesthesia. Sham burn was produced by immersing the lukewarm water in the same manner. Both groups of animals received 40 ml/kg intraperitoneal saline injection for the resuscitation following the injury. A venous catheter was placed surgically into the right jugular vein subsequent to sham or burn injury. SS-31 (2 mg/kg) or saline was injected as priming, and infused for 7 days (4 mg/kg/day) using osmotic pump (Durect, CA). […] The indirect calorimetry was performed for 24 hours at 6 days after burn injury in a TSE Indirect Calorimetry System (TSE Co. Germany), and VO2, VCO2 and energy expenditure were recorded every six minutes. Interscapullar brown adipose tissue was collected after the indirect calorimetry, and UCP-1 expression in the brown adipose tissue was evaluated by Western blot.

UCP-1 = UCP-1 expression in brown adipose tissue by Western blot (Example 7); type: in vivo, rat; conditions: rats, III degree 30% TBSA burns; 2 mg/kg priming then 4 mg/kg/day infused 7 days; p=0.057
Description: as §3

[6] = system: ATP synthesis rate (Pi→γATP) in hindlimb skeletal muscle; test: In vivo 31P-NMR saturation transfer, ATP synthesis rate (Pi→γATP), mouse burn model (Examples 8 and 10)
Description: as §2
NMR spectroscopy is described in detail in Padfield, et al., Proc Natl Acad Sci USA 102: 5368-5373 (2005). Briefly, mice were randomized into burn, burn+SS-31 peptide, control, and control+peptide groups. The SS-31 peptide (3 mg/kg) was injected intraperitoneally at 30 min prior to burn and a second injection immediately after the burn. NMR experiments were performed in a horizontal bore magnet (proton frequency 400 MHz, 21 cm diameter, Magnex Scientific) using a Bruker Avance console. A 90° pulse was optimized for detection of phosphorus spectra (repetition time 2 s, 400 averages, 4K data points). Saturation 90°-selective pulse trains (duration 36.534 ms, bandwidth 75 Hz) followed by crushing gradients were used to saturate the γ-ATP peak. The same saturation pulse train was also applied downfield of the inorganic phosphate (Pi) resonance, symmetrically to the γ-ATP resonance. T1 relaxation times of Pi and phosphocreatine (PCr) were measured using an inversion recovery pulse sequence in the presence of γ-ATP saturation. […]
Values are means±SE; ΔM/M0 is the fractional change in Pi magnetization as a result of saturation transfer; T1obs is the observed spin lattice relaxation time of Pi during γATP saturation in seconds; ATP synthesis is calculated as [Pi]×k; [Pi] is the concentration of Pi extrapolated from the baseline NMR spectrum, comparing Pi and γATP peaks and ATP concentration measured with bioluminescence assay; k is calculated as (1/T1obs)×(ΔM/M0); P-values (unpaired Student's t-test) are for comparisons between experimental and control groups; * indicates only one dose of SS-31 peptide (3 mg/kg) was injected to animals immediately after burn.

[7] = system: ATP synthesis rate (reaction PCr → γATP) in hindlimb skeletal muscle; test: In vivo 31P-NMR saturation transfer, ATP synthesis rate (reaction PCr→γATP), mouse burn model (Example 8)
Description: as §2
NMR spectroscopy is described in detail in Padfield, et al., Proc Natl Acad Sci USA 102: 5368-5373 (2005). Briefly, mice were randomized into burn, burn+SS-31 peptide, control, and control+peptide groups. The SS-31 peptide (3 mg/kg) was injected intraperitoneally at 30 min prior to burn and a second injection immediately after the burn. NMR experiments were performed in a horizontal bore magnet (proton frequency 400 MHz, 21 cm diameter, Magnex Scientific) using a Bruker Avance console. A 90° pulse was optimized for detection of phosphorus spectra (repetition time 2 s, 400 averages, 4K data points). Saturation 90°-selective pulse trains (duration 36.534 ms, bandwidth 75 Hz) followed by crushing gradients were used to saturate the γ-ATP peak. The same saturation pulse train was also applied downfield of the inorganic phosphate (Pi) resonance, symmetrically to the γ-ATP resonance. T1 relaxation times of Pi and phosphocreatine (PCr) were measured using an inversion recovery pulse sequence in the presence of γ-ATP saturation. An adiabatic pulse (400 scans, sweep with 10 KHz, 4K data) was used to invert Pi and PCr, with an inversion time between 152 ms and 7651 ms.

mitochondrial aconitase = test: Mitochondrial aconitase activity in 5% TBSA mice burn model (Example 9); type: in vivo, mouse; conditions: burned animals
Excerpt: Mitochondrial aconitase is part of the TCA cycle and its activity has been directly correlated with the TCA flux. Moreover, its activity is inhibited by ROS and thus it is considered as an index of oxidative stress. Here we present the local and systematic effects of burn on the mitochondrial aconitase activity using a 5% TBSA mice burn model. The effects of a mitochondrial peptide (SS-31) had been also examined.

[8] = 3-5% TBSA burn, 3 mg/kg IP, 6 h after burn, p<0.05, 3 mg/kg
[9] = Controls + Peptide (n = 5), unburned CD1 mice, 3 mg/kg IP two injections

## D-Arg-2′,6′-dimethyltyrosine-Lys-Phe-NH2 [SS-31]
Sprague Dawley rats [1]
  RER: 0.669 ± 0.005
Apoptosis in the liver
  number of liver cells undergoing apoptosis (TUNEL): minimized the number of cells undergoing apoptosis
caspase-3 [2]
  activated form of caspase-3 protein levels in liver: reversed the increase in the activated form of caspase-3 protein levels on day 3 and 7 post-burn to the levels similar to those of sham control animals
caspase-3 [3]; day 3
  caspase activity in liver: trend for the increased caspase activity following burn injury to reverse
caspase-3 [3]; post-burn day 7
  caspase activity in liver: reduced the caspase activity to a level that was statistically not different from that of sham control group
Protein oxidation
  protein oxidation following burn injury: decreased protein oxidation
Sprague-Dawley rats
  rate of wound contraction (area of the scab): slower rate of wound contraction
[4]; [8]
  redox status of burn+peptide group as compared to burn (EPR): significant increase (recovery) in the redox status
  redox status of burn+peptide group as compared to control (EPR): significant decrease in the redox status
[4]; local burn, 3 mg/kg IP 30 min before burn and immediately after burn, 6 h timepoint
  rate of nitroxide reduction in gastrocnemius muscle: significantly increased the rate of nitroxide reduction
Sprague Dawley rats [5]; p<0.01
  VO2, BPep group compared to BSal group: significantly attenuated
Sprague Dawley rats [5]; p<0.05
  VCO2, BPep group compared to BSal group: significantly attenuated
  energy expenditure, BPep group compared to BSal group: significantly attenuated
UCP-1
  UCP-1 expression in brown adipose tissue, decrease in BPep group compared to BSal group: 32%
[6]; Burn + Peptide (n = 8), 3 mg/kg IP 30 min before burn and immediately after burn, 6 hours after burn
  Pi: 2.93 ± 0.56 µmol/g
[6]; Burn + Peptide* (n = 8), only one dose 3 mg/kg immediately after burn
  Pi: 1.41 ± 0.26 µmol/g
[6]; [9]
  Pi: 5.49 ± 0.28 µmol/g
[7]; Burn + Peptide (n = 8), 3 mg/kg IP 30 min prior to burn and immediately after the burn
  PCr: 3.25 ± 0.29 µmol/g
[7]; [9]
  ATP synthesis rate (reaction PCr → γATP): 0.50 ± 0.06 µmol/g/s
  PCr: 3.76 ± 0.51 µmol/g
Mitochondrial aconitase
  mitochondrial aconitase activity: decreased mitochondrial aconitase activity up to the control levels
